Assay results from patent US10538567B2, “Compounds as peptidic trigonal GLP1/glucagon/GIP receptor agonists” (priority 2016, dated 2020).
Numbered stars: 1 amine (or outer) side, 2 acyl side, 3 side chain; on linkers, the order of the positions; unused ones are H or OH. Square brackets hold non-standard residues; d marks the D form. Side chains are listed from the residue outwards. Peptide text beside a SMILES is read from it. * marks the point of attachment. γGlu = O=C(O)[C@H](CCC(=O)[*:2])N[*:1]; Palmitoyl = CCCCCCCCCCCCCCCC(=O)*; Aib = CC(C)(N)C(=O)O

Assay: Dynamic light scattering, hydrodynamic radius as surrogate for DLS interaction parameter kD
Type: physicochemical
Conditions: for Delta Rh [nm] = Rh5 − Rh1: DLS buffer system A pH 4.5; for Rh1 [nm] c = 1 mg/ml / Rh5 [nm] c = 5 mg/ml: hydrodynamic radius, DLS buffer system A pH 4.5, method C, 25° C.
Excerpt: A monochromatic and coherent light beam (laser) is used to illuminate the liquid sample. Dynamic Light Scattering (DLS) measures light scattered from particles (1 nm≤radius≤1 μm) that undergo Brownian motion. This motion is induced by collisions between the particles and solvent molecules that themselves are moving due to their thermal energy. The diffusional motion of the particles results in temporal fluctuations of the scattered light [Pecora, R. Dynamic Light Scattering: Applications of Photon Correlation Spectroscopy, Plenum Press, 1985].
The scattered light intensity fluctuations are recorded and transformed into an autocorrelation function. By fitting the autocorrelation curve to an exponential function, the diffusion coefficient D of the particles in solution can be derived. The diffusion coefficient is then used to calculate the hydrodynamic radius Rh (or apparent Stokes radius) through the Stokes-Einstein equation assuming spherical particles. This calculation is defined in ISO 13321 and ISO 22412 [International Standard ISO13321 Methods for Determination of Particle Size Distribution Part 8: Photon Correlation Spectroscopy, International Organisation for Standardisation (ISO) 1996; International Standard ISO22412 Particle Size Analysis—Dynamic Light Scattering, International Organisation for Standardisation (ISO) 2008].
For every peptide solution, the hydrodynamic radius Rh and the diffusion constant D (related via the Stokes-Einstein equation) were determined as an average over triplicates. Both parameters were determined at different peptide concentrations (e.g., Rh1 and D1: 1 mg/ml and Rh5 and D5: 5 mg/ml) in the same buffer system. The difference of these parameters between low and high peptide concentration is a surrogate for the DLS interaction parameter kD. Rh5<Rh1 or D5>D1 correspond to kD>0 and therefore to repulsive inter-particle interactions that result in improved physical (or colloidal) stability.
DLS buffer system A) 25 mM acetate buffer pH 4.5, 3 mg/mL L-Methionine, 2.7 mg/mL m-cresol, 18 mg/mL Glycerol 85%
DLS Method C: DLS measurements were performed on a DynaPro Plate Reader II (Wyatt Technology, Santa Barbara, Calif., US) and using one of the following black, low volume, and non-treated plates: polystyrene 384 assay plate with clear bottom (Corning, N.Y., US), polystyrene 96 assay plate with clear bottom (Corning, N.Y., US), cyclo olefin polymer (COP) 384 assay plate with clear bottom (Aurora, Mont., US), or polystyrene 384 assay plate with clear bottom (Greiner Bio-One, Germany). The data were processed with the Dynamics software provided by Wyatt Technology. Parameters of the particle size distribution were determined with non-negatively constrained least squares (NNLS) methods using DynaLS algorithms. Measurements were taken at 25° C. with an 830 nm laser light source at an angle of 158°.
The hydrodynamic radius Rh of peptide samples was determined at different peptide concentrations (1 mg/ml and 5 mg/ml) in DLS buffer system A using DLS method C as described in Methods as surrogate for the DLS interaction parameter kD.

SMILES | Delta Rh [nm] = Rh5 − Rh1 [nm] | Rh1 [nm] c = 1 mg/ml [nm] | Rh5 [nm] c = 5 mg/ml [nm]
CCCCCCCCCCCCCCCC(=O)N[C@@H](CCC(=O)N[C@@H](CCC(=O)NCCCC[C@H](NC(=O)[C@H](CC(C)C)NC(=O)[C@H](CCCCN)NC(=O)[C@H](CO)NC(=O)[C@H](CC(C)C)NC(=O)[C@H](CC(=O)O)NC(=O)[C@H](CO)NC(=O)[C@@H](NC(=O)[C@H](Cc1ccccc1)NC(=O)[C@@H](NC(=O)CNC(=O)[C@H](Cc1c[nH]cn1)NC(=O)C(C)(C)NC(=O)[C@@H](N)Cc1c[nH]cn1)[C@@H](C)O)[C@@H](C)O)C(=O)N[C@@H](CCC(=O)O)C(=O)N[C@@H](CCC(=O)O)C(=O)N[C@@H](CCC(N)=O)C(=O)N[C@@H](CCCNC(=N)N)C(=O)N[C@@H](CCC(N)=O)C(=O)N[C@@H](CCCCN)C(=O)N[C@@H](CCC(=O)O)C(=O)N[C@@H](Cc1ccccc1)C(=O)N[C@H](C(=O)N[C@@H](CCC(=O)O)C(=O)N[C@@H](Cc1c[nH]c2ccccc12)C(=O)N[C@@H](CC(C)C)C(=O)N[C@@H](CCCCN)C(=O)N[C@@H](C)C(=O)N[C@H](C)C(=O)NCC(=O)N1CCC[C@H]1C(=O)N1CCC[C@H]1C(=O)N[C@@H](CO)C(=O)NC(C)(C)C(=O)N[C@@H](CCCCN)C(=O)N1CCC[C@H]1C(=O)N1CCC[C@H]1C(=O)N1CCC[C@H]1C(=O)N[C@@H](CCCCN)C(N)=O)[C@@H](C)CC)C(=O)O)C(=O)O [SEQ ID NO: 9, H-Aib-H-G-T-F-T-S-D-L-S-K-L-K[gGlu-gGlu-Palm]-E-E-Q-R-Q-K-E-F-I-E-W-L-K-A-dAla-G-P-P-S-Aib-K-P-P-P-K-NH2] (H-H[Aib]HGTFTSDLSKLK([γGlu-γGlu-Palmitoyl])EEQRQKEFIEWLKA[dA]GPPS[Aib]KPPPK-NH2) | −0.2 | 2.8 | 2.6
CCCCCCCCCCCCCCCC(=O)N[C@@H](CCC(=O)N[C@@H](CCC(=O)NCCCC[C@H](NC(=O)[C@H](CC(C)C)NC(=O)[C@H](CCCCN)NC(=O)[C@H](CO)NC(=O)[C@H](CC(C)C)NC(=O)[C@H](CC(=O)O)NC(=O)[C@H](CO)NC(=O)[C@@H](NC(=O)[C@H](Cc1ccccc1)NC(=O)[C@@H](NC(=O)CNC(=O)[C@H](Cc1c[nH]cn1)NC(=O)C(C)(C)NC(=O)[C@@H](N)Cc1c[nH]cn1)[C@@H](C)O)[C@@H](C)O)C(=O)N[C@@H](CCC(=O)O)C(=O)N[C@@H](CCC(=O)O)C(=O)N[C@@H](CCC(N)=O)C(=O)N[C@@H](CCCNC(=N)N)C(=O)N[C@@H](CCC(N)=O)C(=O)N[C@@H](CCCCN)C(=O)N[C@@H](CCC(=O)O)C(=O)N[C@@H](Cc1ccccc1)C(=O)N[C@H](C(=O)N[C@@H](CCC(=O)O)C(=O)N[C@@H](Cc1c[nH]c2ccccc12)C(=O)N[C@@H](CC(C)C)C(=O)N[C@@H](CCCCN)C(=O)N[C@@H](C)C(=O)NCC(=O)NCC(=O)N1CCC[C@H]1C(=O)N1CCC[C@H]1C(=O)N[C@@H](CO)C(=O)NC(C)(C)C(=O)N[C@@H](CCCCN)C(=O)N1CCC[C@H]1C(=O)N1CCC[C@H]1C(=O)N1CCC[C@H]1C(=O)N[C@@H](CCCCN)C(N)=O)[C@@H](C)CC)C(=O)O)C(=O)O [SEQ ID NO: 8, H-Aib-H-G-T-F-T-S-D-L-S-K-L-K[gGlu-gGlu-Palm]-E-E-Q-R-Q-K-E-F-I-E-W-L-K-A-G-G-P-P-S-Aib-K-P-P-P-K-NH2] | −0.4 | 3.0 | 2.6
CCCCCCCCCCCCCCCC(=O)N[C@@H](CCC(=O)N[C@@H](CCC(=O)NCCCC[C@H](NC(=O)[C@H](CC(C)C)NC(=O)[C@H](CCCCN)NC(=O)[C@H](CO)NC(=O)[C@H](CC(C)C)NC(=O)[C@H](CC(=O)O)NC(=O)[C@H](CO)NC(=O)[C@@H](NC(=O)[C@H](Cc1ccccc1)NC(=O)[C@@H](NC(=O)CNC(=O)[C@H](Cc1c[nH]cn1)NC(=O)C(C)(C)NC(=O)[C@@H](N)Cc1c[nH]cn1)[C@@H](C)O)[C@@H](C)O)C(=O)N[C@@H](CCC(=O)O)C(=O)N[C@@H](CCC(=O)O)C(=O)N[C@@H](CCC(N)=O)C(=O)N[C@@H](CCCNC(=N)N)C(=O)N[C@@H](CCC(N)=O)C(=O)NC(C)(C)C(=O)N[C@@H](CCC(=O)O)C(=O)N[C@@H](Cc1ccccc1)C(=O)N[C@H](C(=O)N[C@@H](CCC(=O)O)C(=O)N[C@@H](Cc1c[nH]c2ccccc12)C(=O)N[C@@H](CC(C)C)C(=O)N[C@@H](CCCCN)C(=O)N[C@@H](C)C(=O)NCC(=O)NCC(=O)N[C@@H](Cc1c[nH]cn1)C(=O)N1CCC[C@H]1C(=O)N[C@@H](CO)C(=O)NC(C)(C)C(=O)N[C@@H](CCCCN)C(=O)N1CCC[C@H]1C(=O)N1CCC[C@H]1C(=O)N1CCC[C@H]1C(=O)N[C@@H](CCCCN)C(N)=O)[C@@H](C)CC)C(=O)O)C(=O)O [SEQ ID NO: 12, H-Aib-H-G-T-F-T-S-D-L-S-K-L-K[gGlu-gGlu-Palm]-E-E-Q-R-Q-Aib-E-F-I-E-W-L-K-A-G-G-H-P-S-Aib-K-P-P-P-K-NH2] | −0.3 | 2.9 | 2.6
CCCCCCCCCCCCCCCC(=O)N[C@@H](CCC(=O)N[C@@H](CCC(=O)NCCCC[C@H](NC(=O)[C@H](CC(C)C)NC(=O)[C@H](CCCCN)NC(=O)[C@H](CO)NC(=O)[C@H](CC(C)C)NC(=O)[C@H](CC(=O)O)NC(=O)[C@H](CO)NC(=O)[C@@H](NC(=O)[C@H](Cc1ccccc1)NC(=O)[C@@H](NC(=O)CNC(=O)[C@H](Cc1c[nH]cn1)NC(=O)C(C)(C)NC(=O)[C@@H](N)Cc1c[nH]cn1)[C@@H](C)O)[C@@H](C)O)C(=O)N[C@@H](CCC(=O)O)C(=O)N[C@@H](CCC(=O)O)C(=O)N[C@@H](CCC(N)=O)C(=O)N[C@@H](CCCNC(=N)N)C(=O)N[C@@H](CCC(N)=O)C(=O)NC(C)(C)C(=O)N[C@@H](CCC(=O)O)C(=O)N[C@@H](Cc1ccccc1)C(=O)N[C@H](C(=O)N[C@@H](CCC(=O)O)C(=O)N[C@@H](Cc1c[nH]c2ccccc12)C(=O)N[C@@H](CC(C)C)C(=O)N[C@@H](CCCCN)C(=O)N[C@@H](C)C(=O)N[C@H](C)C(=O)NCC(=O)N[C@@H](Cc1c[nH]cn1)C(=O)N1CCC[C@H]1C(=O)N[C@@H](CO)C(=O)NC(C)(C)C(=O)N[C@@H](CCCCN)C(=O)N1CCC[C@H]1C(=O)N1CCC[C@H]1C(=O)N1CCC[C@H]1C(=O)N[C@@H](CCCCN)C(N)=O)[C@@H](C)CC)C(=O)O)C(=O)O [SEQ ID NO: 13, H-Aib-H-G-T-F-T-S-D-L-S-K-L-K[gGlu-gGlu-Palm]-E-E-Q-R-Q-Aib-E-F-I-E-W-L-K-A-dAla-G-H-P-S-Aib-K-P-P-P-K-NH2] (H-H[Aib]HGTFTSDLSKLK([γGlu-γGlu-Palmitoyl])EEQRQ[Aib]EFIEWLKA[dA]GHPS[Aib]KPPPK-NH2) | −0.3 | 2.8 | 2.5
